Literature values in patent US20080317845A1, “Duloxetine Formulation” (priority 2007, published 2008).
Counter-ions that a name gives are not always drawn.

In the case of `CNCC[C@H](Oc1cccc2ccccc12)c1cccs1` [duloxetine, (+)-(S)-N-methyl-y-(1-naphthyloxy)-2-thiophenepropylamine hydrochloride], the “stability in acidic media” value is listed as “unstable”.
